The target of assay [1] is T1, A2A (Homo sapiens, UniProt P29274).
T1 construct: Eurofins Pharma Discovery Services
The assay is described as follows: Selectivity panel (Eurofins): A2A adenosine receptor. It is filed as binding.

Assay [2] addresses Tyk2 (Homo sapiens, UniProt P29597). The assay is described as follows: Enzymatic Tyk2 kinase activity. The assay is classed as biochemical. Particulars: dose-response curves; read-out: IC50 ± SD, Tyk2. The procedure:
(§1) Enzymatic Syk kinase activity assays were performed as previously described. Enzymatic activity of JAK1, JAK2, JAK3, and Tyk kinases was evaluated as previously described.

Assay [3] deals with T2, JAK3 (Homo sapiens, UniProt P52333).
T2 sequence (P52333 1-1124): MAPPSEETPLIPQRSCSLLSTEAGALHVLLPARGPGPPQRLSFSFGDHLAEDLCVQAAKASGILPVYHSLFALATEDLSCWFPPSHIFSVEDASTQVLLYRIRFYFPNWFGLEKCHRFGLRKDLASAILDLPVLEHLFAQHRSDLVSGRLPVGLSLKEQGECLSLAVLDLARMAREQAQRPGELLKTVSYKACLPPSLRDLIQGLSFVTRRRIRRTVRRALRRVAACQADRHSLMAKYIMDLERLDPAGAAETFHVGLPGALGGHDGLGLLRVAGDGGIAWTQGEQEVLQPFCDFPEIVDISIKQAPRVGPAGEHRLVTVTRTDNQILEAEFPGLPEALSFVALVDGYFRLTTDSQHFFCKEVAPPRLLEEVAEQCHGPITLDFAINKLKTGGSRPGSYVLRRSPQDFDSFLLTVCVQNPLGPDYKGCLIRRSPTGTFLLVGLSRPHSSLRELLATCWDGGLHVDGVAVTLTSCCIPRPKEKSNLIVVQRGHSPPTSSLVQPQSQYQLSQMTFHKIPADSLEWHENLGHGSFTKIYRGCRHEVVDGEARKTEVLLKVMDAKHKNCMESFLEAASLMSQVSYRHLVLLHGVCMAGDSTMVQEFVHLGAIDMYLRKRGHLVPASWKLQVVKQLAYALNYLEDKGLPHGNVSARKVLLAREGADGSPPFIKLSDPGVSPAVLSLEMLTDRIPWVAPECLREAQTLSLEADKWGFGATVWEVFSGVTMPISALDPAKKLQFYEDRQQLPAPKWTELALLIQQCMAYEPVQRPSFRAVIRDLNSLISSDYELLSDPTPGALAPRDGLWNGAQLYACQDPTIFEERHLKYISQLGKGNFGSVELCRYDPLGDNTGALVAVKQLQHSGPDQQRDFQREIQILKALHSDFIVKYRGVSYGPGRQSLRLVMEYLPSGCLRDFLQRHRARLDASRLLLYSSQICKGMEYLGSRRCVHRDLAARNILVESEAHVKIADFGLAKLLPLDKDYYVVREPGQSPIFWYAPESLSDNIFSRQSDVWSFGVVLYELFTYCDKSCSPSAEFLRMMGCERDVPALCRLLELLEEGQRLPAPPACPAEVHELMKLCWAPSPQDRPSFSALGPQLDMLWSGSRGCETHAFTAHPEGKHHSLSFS
In words: Enzymatic JAK3 kinase activity. The assay is classed as biochemical. Particulars: dose-response curves; read-out: IC50 ± SD, JAK3. Here is the method:
as §1

Assay [4] deals with JAK1 (Homo sapiens, UniProt P23458). In words: Enzymatic JAK1 kinase activity. Particulars: dose-response curves; read-out: IC50 ± SD, JAK1. It is filed as biochemical. Here is the method:
as §1

Where two headings read alike, the source gives them in different places.

T1 sequence (P29274 whole entry): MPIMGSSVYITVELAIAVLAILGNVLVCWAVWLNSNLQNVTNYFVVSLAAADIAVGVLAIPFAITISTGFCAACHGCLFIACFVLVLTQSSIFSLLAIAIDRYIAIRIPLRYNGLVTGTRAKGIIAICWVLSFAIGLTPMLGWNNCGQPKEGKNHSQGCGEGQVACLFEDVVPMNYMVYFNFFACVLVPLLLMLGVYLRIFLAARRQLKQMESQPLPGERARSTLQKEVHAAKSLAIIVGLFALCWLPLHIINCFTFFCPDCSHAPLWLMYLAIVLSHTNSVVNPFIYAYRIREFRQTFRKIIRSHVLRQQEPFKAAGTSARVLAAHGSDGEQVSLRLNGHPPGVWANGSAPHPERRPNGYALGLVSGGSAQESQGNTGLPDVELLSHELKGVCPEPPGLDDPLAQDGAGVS
Chain of Tyk2 (P29597 whole entry, species assumed): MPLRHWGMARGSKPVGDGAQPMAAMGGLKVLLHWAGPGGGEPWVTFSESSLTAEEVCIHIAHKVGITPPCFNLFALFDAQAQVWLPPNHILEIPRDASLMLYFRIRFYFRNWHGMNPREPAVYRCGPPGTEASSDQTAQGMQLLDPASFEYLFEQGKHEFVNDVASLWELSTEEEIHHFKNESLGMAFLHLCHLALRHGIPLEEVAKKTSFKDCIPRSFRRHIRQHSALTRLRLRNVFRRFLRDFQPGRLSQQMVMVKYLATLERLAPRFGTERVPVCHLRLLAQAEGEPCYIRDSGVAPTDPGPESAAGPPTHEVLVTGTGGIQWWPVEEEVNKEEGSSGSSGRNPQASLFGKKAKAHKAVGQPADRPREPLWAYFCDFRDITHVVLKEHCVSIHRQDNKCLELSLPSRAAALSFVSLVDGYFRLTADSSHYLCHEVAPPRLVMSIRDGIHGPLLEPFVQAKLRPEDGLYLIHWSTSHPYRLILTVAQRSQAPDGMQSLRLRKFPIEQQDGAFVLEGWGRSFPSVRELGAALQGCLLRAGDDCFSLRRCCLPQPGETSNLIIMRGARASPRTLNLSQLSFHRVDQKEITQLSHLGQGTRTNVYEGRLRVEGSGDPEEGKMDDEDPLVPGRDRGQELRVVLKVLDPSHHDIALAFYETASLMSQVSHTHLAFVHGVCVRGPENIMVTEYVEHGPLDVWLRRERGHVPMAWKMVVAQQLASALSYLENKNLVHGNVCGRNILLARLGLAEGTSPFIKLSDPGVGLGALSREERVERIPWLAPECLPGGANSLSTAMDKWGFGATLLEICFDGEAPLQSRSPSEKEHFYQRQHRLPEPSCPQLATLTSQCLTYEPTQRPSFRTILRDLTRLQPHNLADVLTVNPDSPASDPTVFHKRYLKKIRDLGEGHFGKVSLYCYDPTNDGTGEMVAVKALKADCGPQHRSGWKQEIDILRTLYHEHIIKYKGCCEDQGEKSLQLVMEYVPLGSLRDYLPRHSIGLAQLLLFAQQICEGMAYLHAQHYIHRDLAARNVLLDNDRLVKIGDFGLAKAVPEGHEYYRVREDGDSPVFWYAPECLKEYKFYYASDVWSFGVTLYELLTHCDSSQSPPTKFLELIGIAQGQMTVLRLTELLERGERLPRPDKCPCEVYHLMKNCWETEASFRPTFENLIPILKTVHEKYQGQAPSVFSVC
Chain of JAK1 (P23458 whole entry, species assumed): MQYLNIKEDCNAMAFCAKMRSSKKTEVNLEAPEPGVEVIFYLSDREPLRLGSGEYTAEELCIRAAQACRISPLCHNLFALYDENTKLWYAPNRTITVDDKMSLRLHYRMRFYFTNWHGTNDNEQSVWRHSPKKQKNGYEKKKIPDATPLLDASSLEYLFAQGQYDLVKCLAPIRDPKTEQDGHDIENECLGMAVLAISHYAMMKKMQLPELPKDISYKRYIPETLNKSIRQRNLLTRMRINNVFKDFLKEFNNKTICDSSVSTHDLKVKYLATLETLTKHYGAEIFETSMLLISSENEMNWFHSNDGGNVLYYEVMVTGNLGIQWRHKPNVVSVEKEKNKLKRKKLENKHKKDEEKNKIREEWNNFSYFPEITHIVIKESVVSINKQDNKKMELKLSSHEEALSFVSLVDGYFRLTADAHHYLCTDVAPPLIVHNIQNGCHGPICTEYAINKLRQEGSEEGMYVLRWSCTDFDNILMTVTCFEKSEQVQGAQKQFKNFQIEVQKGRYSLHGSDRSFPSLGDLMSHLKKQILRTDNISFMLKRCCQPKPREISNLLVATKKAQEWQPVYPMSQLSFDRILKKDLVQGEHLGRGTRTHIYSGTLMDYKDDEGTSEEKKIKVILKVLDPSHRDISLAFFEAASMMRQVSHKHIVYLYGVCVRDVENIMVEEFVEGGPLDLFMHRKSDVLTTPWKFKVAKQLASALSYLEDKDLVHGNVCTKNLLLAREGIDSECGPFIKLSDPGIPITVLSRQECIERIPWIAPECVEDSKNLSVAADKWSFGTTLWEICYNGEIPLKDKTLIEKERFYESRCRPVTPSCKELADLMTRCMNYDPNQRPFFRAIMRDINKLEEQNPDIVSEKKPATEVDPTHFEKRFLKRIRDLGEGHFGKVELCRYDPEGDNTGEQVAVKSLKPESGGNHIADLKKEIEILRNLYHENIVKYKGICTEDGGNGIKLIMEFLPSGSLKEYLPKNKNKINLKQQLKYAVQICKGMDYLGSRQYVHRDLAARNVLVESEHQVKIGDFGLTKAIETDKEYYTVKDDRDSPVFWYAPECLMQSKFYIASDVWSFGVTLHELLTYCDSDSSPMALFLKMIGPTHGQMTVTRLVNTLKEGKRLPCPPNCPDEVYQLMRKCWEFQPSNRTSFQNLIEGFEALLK

A word on the inhibition: it is the change of the read-out against control, counted positive when it falls. For `C#Cc1cc(-c2ccncc2)c(-c2cccc(F)c2)nc1N` [Compound 7], the inhibition at 10 µM in assay [1] (Table 5, read-out: Selectivity % inhibition, A2A) was 96%; in assay [1] (n = 1, duplicate, read-out: % inhibition, A2A), 100%. Also, the inhibition at 3 µM in assay [1] (at 3 μM, n = 1, duplicate, read-out: % inhibition, A2A) worked out at 101%. Also, the inhibition at 30 µM in assay [1] (at 30 μM, n = 1, duplicate, read-out: % inhibition, A2A) amounted to 101%. Also, the “antagonism/inhibition of A2A adenosine receptor” value in assay [1] (at concentrations of 3 and 10 µM) is recorded as no less than 50%.

As usually defined, the IC50 is the concentration that inhibits the measured activity by half. For `NC(=O)Cn1ccc2ccc(-c3cnc(N)c(C(=O)NC4C5CC6CC4CC(O)(C6)C5)n3)cc21` (centres unmarked) [Compound 1], the values for the IC50 in assay [2], in assay [3] and in assay [4] were 0.03 ± 0.0006 µM, 0.06 ± 0.006 µM and 0.44 ± 0.16 µM, respectively.

These data come from paper PMC11329504, “Identification of novel small molecule-based strategies of COL7A1 upregulation and readthrough activity for the treatment of recessive dystrophic epidermolysis bullosa” (Scientific Reports, 2024).
